Assay: Chemical stability of spray-dried zavegepant powder on storage, assay and % RS by HPLC/UV
Assay type: physicochemical
Conditions: zavegepant formulated as spray-dried powder, stored up to 6 months at 25/60 and 40/75
Experimental: The assay and purity, determined by HPLC/UV analysis, was 103.4% with a % RS of 1.46%.
Amounts of around 100 mg of the spray-dried powder from Example 2 above was dispensed into plastic DUMA containers placed in heat-sealed aluminium pouches together with a 4 Å molecular sieve desiccant. Two containers were placed inside a climate cabinet at 40 °C and 75% relative humidity (40/75) and two containers were placed inside a climate cabinet at 25 °C and 60% relative humidity (25/60).
The chemical stability of the drug substance after 6 months, with assay and total amounts of impurities and degradation products expressed as % RS, is summarized for the different climates in Table 3 below, in which NA means ‘not analysed’.

chemical stability (observed changes in % RS): surprisingly good
Structure (SMILES): Cc1cc(C[C@@H](NC(=O)N2CCC(c3cc4ccccc4[nH]c3=O)CC2)C(=O)N2CCN(C3CCN(C)CC3)CC2)cc2cn[nH]c12 [zavegepant]

Source: patent publication US20260335238A1, “SPRAY-DRIED COMPOSITIONS COMPRISING CGRP RECEPTOR ANTAGONISTS” (OREXO AB, priority 2023, published 2026)
